According to US9994554B2, “Barbiturate and thiobarbiturate compounds for use in cancer therapy” (NUHOPE, LLC, priority 2011, dated 2018):

What follows are compounds tested on U87-MG cells (assay: U87-MG resazurin cell assay (Example 13)). Details: Homo sapiens, U-87 MG; U87-MG, 5 days (120 hrs) incubation; read-out: Activity Score (Mean pXC50) (converted).
Type: cell-based
Procedure: U87-MG cells were obtained from the ATCC, LGC Standards (#HTB-14). The cells were screened for mycoplasma (Mycoplasma Experience) and maintained in Biowhittaker Alpha MEM (Lonza #BE02-002F+10% dialyzed US FBS serum (Invitrogen #26400-044), 1% Penstrep (Gibco #15140-122).
Compounds to be tested were transferred into column 1 of a hit plate (96-well PPV Greiner #651201). 20 ul of DMSO was added to columns 2 to 11. The top concentration was 10 mM.
Serial dilution, ten-point one in three dilution curves were created using Perkin Elmer Janus (20 ul clear Robopack disposable tips #6000677 used).
2 ul of each of the compounds was transferred by pre-dispensing into black, clear bottom 96-well CellBIND Corning plates (Fisher #DPS-184-030R) using Platemate 2×2 (ThermoFisher Darts #5506).
200 μl of U87-MG cells were added to columns 1 to 11 at a density of 1000 cells per ml, and media only was dispensed into control column 12 using Wellmate (Small bore tubing set #201-30002).
After 5 days (120 hrs) incubation at 37° C. under 5% CO2 in a humidified incubator, the assay was “stopped” by addition of Resazurin sodium salt at 0.5 mM final concentration (Sigma R7017). The plates were incubated for a further 4 hrs before resorufin readout was taken from a Perkin Elmer EnVision, 550 nm excitation (photo550, Barcode 312), 580 nm emission (M580, Barcode 233), Top Mirror BODIPY (D555, Barcode 405).

| SMILES | IC50 |
| --- | --- |
| Cc1ccc(/C=C/C=C2C(=O)NC(=S)NC2=O)cc1 [DDD00175798] | 1 to 10 µM |
| CCN1C(=O)NC(=O)/C(=C\C=C\c2ccccc2F)C1=O [DDD00175810] | 1 to 10 µM |
| O=C1NC(=O)C(=Cc2cccc(F)c2)C(=O)N1 [DDD00175822] | > 100 µM |
| COc1ccc2c(c1)OCC(C=C1C(=O)N(C)C(=O)N(C)C1=O)=C2 [DDD00175826] | 31.6 to 100 µM |
| CN1C(=O)C(=C/C=C/C2CCCCC2)C(=O)N(C)C1=O [DDD00197709] | 10 to 31.6 µM |
| O=C1NC(=O)C(=Cc2ccncc2)C(=O)N1 [DDD00175820] | > 100 µM |
| CCN1C(=O)/C(=C/C=C/c2ccc(F)cc2)C(=O)NC1=S [DDD00175840] | 31.6 to 100 µM |
| O=C1NC(=O)C(=CC2=Cc3ccccc3OC2)C(=O)N1 [DDD00175835] | 31.6 to 100 µM |
| CN1C(=O)C(=Cc2c[nH]c3ccccc23)C(=O)N(C)C1=O [DDD00175791] | > 100 µM |
| O=C1NC(=O)C(=C/C=C/c2ccc(F)cc2)C(=O)N1 [DDD00175842] | 1 to 10 µM |
| CCN1C(=O)C(=C/C=C/c2ccccc2OC)C(=O)N(CC)C1=S [DDD00197350] | 10 to 31.6 µM |
| COc1ccccc1/C=C/C=C1C(=O)N(C)C(=O)N(C)C1=O [DDD00175818] | 1 to 10 µM |
| COc1ccccc1/C=C/C=C1C(=O)NC(=O)NC1=O [DDD00175832] | 1 to 10 µM |
| CCN1C(=O)/C(=C\C=C\c2ccco2)C(=O)N(C2CCOCC2)C1=O [DDD00175792] | 10 to 31.6 µM |
| CCN1C(=O)NC(=O)/C(=C\C=C\c2cccc(F)c2)C1=O [DDD00197347] | 1 to 10 µM |
| CCN1C(=O)NC(=O)/C(=C\C=C\c2cccc(N(C)C)c2)C1=O [DDD00197341] | 1 to 10 µM |
| O=C1NC(=O)C(=C/C=C/c2ccccc2F)C(=O)N1 [DDD00175808] | 1 to 10 µM |
| O=C1NC(=O)C(=Cc2c[nH]c3ccccc23)C(=O)N1 [DDD00175790] | > 100 µM |
| N#Cc1ccc(/C=C/C=C2C(=O)NC(=S)NC2=O)cc1 [DDD00175806] | 31.6 to 100 µM |
| CCN1C(=O)NC(=O)/C(=C\C=C\c2ccc(C)cc2)C1=O [DDD00175801] | 1 to 10 µM |
| CCN1C(=O)C(=C/C=C/c2ccc(Cl)cc2)C(=O)N(CC)C1=S [DDD00175281] | 31.6 to 100 µM |
| CN1C(=O)C(=C/C=C/c2cccc(F)c2)C(=O)N(C)C1=O [DDD00197351] | 1 to 10 µM |

| SMILES | IC50 |
| --- | --- |
| CCN1C(=O)NC(=O)/C(=C\C=C\c2ccc(OC)cc2)C1=O [DDD00175797] | 1 to 10 µM |
| N#Cc1ccccc1/C=C/C=C1C(=O)NC(=O)NC1=O [DDD00197348] | 1 to 10 µM |
| CCN1C(=O)NC(=O)/C(=C\C=C\c2ccccc2C)C1=O [DDD00175813] | 1 to 10 µM |
| O=C1NC(=O)C(=C/C=C/c2ccccc2Cl)C(=O)N1 [DDD00175339] | 1 to 10 µM |
| O=C1NC(=O)C(=C/C=C/c2cccc(F)c2)C(=O)N1 [DDD00197332] | 1 to 10 µM |
| CCN1C(=O)NC(=O)/C(=C\C=C\c2ccccc2OC)C1=O [DDD00175817] | 1 to 10 µM |
| COc1ccc(/C=C/C=C2C(=O)NC(=S)NC2=O)cc1 [DDD00175805] | 1 to 10 µM |
| O=C1NC(=O)C(=Cc2ccccn2)C(=O)N1 [DDD00175837] | > 100 µM |
| O=C1NC(=O)C(=Cc2ccc(Cl)c(Cl)c2)C(=O)N1 [DDD00175836] | > 100 µM |
| O=C1NC(=O)C(=Cc2cccnc2)C(=O)N1 [DDD00175833] | > 100 µM |
| O=C1NC(=O)C(=Cc2ccc(F)cc2)C(=O)N1 [DDD00175831] | > 100 µM |
| CCN1C(=O)/C(=C/C=C/c2cccc(F)c2)C(=O)NC1=S [DDD00197354] | 10 to 31.6 µM |
| O=C1NC(=O)C(=Cc2cccc(Cl)c2)C(=O)N1 [DDD00175823] | > 100 µM |
| O=C1NC(=O)C(=C/C=C/c2ccc(Cl)cc2Cl)C(=O)N1 [DDD00175271] | 1 to 10 µM |
| O=C1NC(=O)C(=C/C=C/c2cccnc2)C(=O)N1 [DDD00197336] | 10 to 31.6 µM |
| CCN1C(=O)NC(=O)/C(=C\C=C\c2cccc(Cl)c2)C1=O [DDD00175297] | ≤ 1 µM |
| Cc1ccccc1/C=C/C=C1C(=O)NC(=O)NC1=O [DDD00175809] | 1 to 10 µM |
| CN(C)c1ccccc1/C=C/C=C1C(=O)NC(=O)NC1=O [DDD00197357] | 1 to 10 µM |
| O=C1NC(=S)NC(=O)C1=C/C=C/c1cccc(F)c1 [DDD00197339] | 1 to 10 µM |
| CCN1C(=O)C(=C/C=C/c2ccc(N(C)C)cc2)C(=O)N(CC)C1=S [DDD00197342] | 31.6 to 100 µM |
| O=C1NC(=O)C(=C/C=C/c2ccccc2[N+](=O)[O-])C(=O)N1 [DDD00175834] | 1 to 10 µM |
| N#Cc1ccc(/C=C/C=C2C(=O)NC(=O)NC2=O)cc1 [DDD00175802] | 10 to 31.6 µM |

| SMILES | IC50 |
| --- | --- |
| CCN1C(=O)/C(=C/C=C/c2ccccc2C)C(=O)NC1=S [DDD00197330] | 1 to 10 µM |
| CCN1C(=O)NC(=O)/C(=C2\C=C(c3ccccc3)CCC2)C1=O [DDD00175332] | > 100 µM |
| CN1C(=O)C(=C/C=C/c2cccc(N(C)C)c2)C(=O)N(C)C1=O [DDD00197346] | 1 to 10 µM |
| CCN1C(=O)NC(=O)/C(=C\C=C\c2ccc(F)cc2)C1=O [DDD00175841] | 1 to 10 µM |
| O=C1NC(=O)C(=C/C=C/c2c(F)cccc2F)C(=O)N1 [DDD00197331] | 1 to 10 µM |
| O=C1NC(=O)C(=C/C=C/c2ccc(Cl)cc2)C(=O)N1 [DDD00175286] | ≤ 1 µM |
| CCN1C(=O)C(=C/C=C/c2cccc(Cl)c2)C(=O)N(CC)C1=S [DDD00175293] | 31.6 to 100 µM |
| CCN1C(=O)C(=C/C=C/c2ccccc2C)C(=O)N(CC)C1=S [DDD00175816] | 10 to 31.6 µM |
| O=C1NC(=S)NC(=O)C1=C/C=C/c1ccccc1F [DDD00197349] | 1 to 10 µM |
| CCN1C(=O)NC(=O)/C(=C\C=C\c2ccccc2N(C)C)C1=O [DDD00197344] | 1 to 10 µM |
| CN(C)c1ccccc1/C=C/C=C1C(=O)NC(=S)NC1=O [DDD00197337] | 10 to 31.6 µM |
| Cc1ccccc1/C=C/C=C1C(=O)NC(=S)NC1=O [DDD00197329] | 1 to 10 µM |
| CCN1C(=O)/C(=C/C=C/c2ccccc2OC)C(=O)NC1=S [DDD00197355] | 1 to 10 µM |
| Cn1cc(/C=C/c2ccccc2)c(=O)n(C)c1=O [DDD00197671] | > 100 µM |
| CN1C(=O)C(=C/C=C/c2ccccc2)C(=O)N(C)C1=O [DDD00175285] | 1 to 10 µM |
| CCN1C(=O)C(=C/C=C/c2ccc(OC)cc2)C(=O)N(CC)C1=S [DDD00175800] | 31.6 to 100 µM |
| CN1C(=O)C(=CC2=Cc3cc(Cl)ccc3OC2)C(=O)N(C)C1=O [DDD00175830] | 31.6 to 100 µM |
| CN1C(=O)C(=C/C=C/c2ccccc2F)C(=O)N(C)C1=O [DDD00175811] | 1 to 10 µM |
| CN1C(=O)C(=C/C=C/c2c(F)cccc2F)C(=O)N(C)C1=O [DDD00197343] | 1 to 10 µM |
| COc1ccc(C=C2C(=O)NC(=O)NC2=O)cc1 [DDD00175838] | > 100 µM |
| COc1ccc(/C=C/C=C2C(=O)N(C)C(=O)N(C)C2=O)cc1 [DDD00175794] | 1 to 10 µM |
| O=C1NC(=O)C(=Cc2ccccc2)C(=O)N1 [DDD00175828] | > 100 µM |

| SMILES | IC50 |
| --- | --- |
| CCN1C(=O)C(=C2C=C(c3ccccc3)CCC2)C(=O)N(CC)C1=S [DDD00175338] | > 100 µM |
| CCN1C(=O)C(=C/C=C/c2ccc(C)cc2)C(=O)N(CC)C1=S [DDD00175807] | 31.6 to 100 µM |
| Cc1ccc(/C=C/C=C2C(=O)NC(=O)NC2=O)cc1 [DDD00175796] | 1 to 10 µM |
| CN1C(=O)C(=C/C=C/c2ccccc2N(C)C)C(=O)N(C)C1=O [DDD00197338] | 1 to 10 µM |
| COc1ccc(/C=C/C=C2C(=O)NC(=O)NC2=O)cc1 [DDD00175799] | 1 to 10 µM |
| O=C1NC(=O)C(=C/C=C/c2cccc(Cl)c2)C(=O)N1 [DDD00175302] | ≤ 1 µM |
| CN1C(=O)C(C(C)(O)/C=C/c2ccccc2)C(=O)N(C)C1=O (stereo not shown) [DDD00197352] | > 100 µM |
| CCN1C(=O)C(=C/C=C/c2ccc(F)cc2)C(=O)N(CC)C1=S [DDD00175839] | 31.6 to 100 µM |
| CN1C(=O)C(=C/C=C/c2ccc(N(C)C)cc2)C(=O)N(C)C1=O [DDD00175795] | 31.6 to 100 µM |
| CCN1C(=O)/C(=C\C=C\c2ccccc2)C(=O)N(C2CCOCC2)C1=O [DDD00175789] | 1 to 10 µM |
| O=C1NC(=O)C(Cc2ccccc2)C(=O)N1 [DDD00175824] | > 100 µM |
| COc1ccccc1/C=C/C=C1C(=O)NC(=S)NC1=O [DDD00175819] | 1 to 10 µM |
| CCN1C(=O)C(=C/C=C/c2c(F)cccc2F)C(=O)N(CC)C1=S [DDD00197345] | 31.6 to 100 µM |
| O=C1NC(=O)C(=CC2CCCCC2)C(=O)N1 [DDD00175825] | > 100 µM |
| CCN1C(=O)NC(=O)/C(=C\C=C\c2ccc(N(C)C)cc2)C1=O [DDD00175804] | 1 to 10 µM |
| CN1C(=O)C(=Cc2ccco2)C(=O)N(C)C1=O [DDD00175280] | > 100 µM |
| O=C1NC(=O)C(=Cc2ccccc2F)C(=O)N1 [DDD00175821] | > 100 µM |
| COc1cccc(C=C2C(=O)NC(=O)NC2=O)c1 [DDD00175827] | > 100 µM |
| CN(C)c1ccc(/C=C/C=C2C(=O)NC(=O)NC2=O)cc1 [DDD00175803] | 10 to 31.6 µM |
